The numbers were not newly measured in patent publication US5814653A, “Pharmaceutical method using 6-substituted-1, 2, 3, 4-tetrahydro-9H-carbazoles and 7-substituted-10H -cyclohepta (7, 6-B) indoles” (priority 1997, dated 1998), which cites them from elsewhere.

In data set [1] the test system is migraine headache. The following applies: Humphrey, et al. (1990).
Data set [2] has as its system neurogenic inflammation. The following applies: Neurology, 43(suppl. 3), S16-S20 (1993).
For data set [3] the following is noted: in vivo.

As to `CNS(=O)(=O)Cc1ccc2[nH]cc(CCN(C)C)c2c1.O=C(O)CCC(=O)O` [Compound I, 3-[2-(dimethylamino)ethyl]-N-methyl-1H-indole-5-methanesulfonamide butane-1,4-dioate (1:1)], in data set [1], the “effectiveness in the treatment of migraine headache” value is given as “effective in the treatment of migraine”. Besides, the “blockade of neurogenic inflammation” value in data set [2] is “blocked”. For the same compound, the undesirable side effects entry in data set [3] is recorded as “undesirable side effects, particularly vasoconstriction”.
